Test results taken from PMC7071109, “Validation of an HPLC Method for the Simultaneous Quantification of Metabolic Reaction Products Catalysed by CYP2E1 Enzyme Activity: Inhibitory Effect of Cytochrome P450 Enzyme CYP2E1 by Salicylic Acid in Rat Liver Microsomes” (Molecules, 2020).

Target: CYP2E1 (Rattus norvegicus, UniProt P05182)
Assay: inhibition of chlorzoxazone 6-hydroxylation in rat liver microsomes, HPLC
Format: biochemical

CYP2E1, sequence (P05182 2-493): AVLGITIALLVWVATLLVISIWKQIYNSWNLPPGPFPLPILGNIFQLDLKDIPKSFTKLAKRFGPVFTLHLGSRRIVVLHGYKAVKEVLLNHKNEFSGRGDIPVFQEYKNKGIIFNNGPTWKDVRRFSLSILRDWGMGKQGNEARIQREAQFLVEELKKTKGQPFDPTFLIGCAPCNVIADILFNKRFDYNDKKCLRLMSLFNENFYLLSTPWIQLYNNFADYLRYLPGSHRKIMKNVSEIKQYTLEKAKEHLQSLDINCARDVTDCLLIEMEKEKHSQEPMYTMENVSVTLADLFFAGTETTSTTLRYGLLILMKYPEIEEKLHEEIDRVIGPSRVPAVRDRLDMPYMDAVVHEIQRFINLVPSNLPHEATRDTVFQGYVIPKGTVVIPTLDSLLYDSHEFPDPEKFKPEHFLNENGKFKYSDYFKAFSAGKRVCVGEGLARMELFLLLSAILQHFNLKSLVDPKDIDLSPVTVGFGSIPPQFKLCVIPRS

SMILES: O=C(O)c1ccccc1O [salicylic acid]
- Ki: 83.6 ± 2.73 µM
